Measured values: paper PMC9436819 (JACC: Basic to Translational Science, 2022)
“Also recorded” adds a separate entry of the source. Where two headings read alike, the source gives them in different places. Marks after values point to notes of the source that are not given here.

Key:
healthy adults = experiment: Treatment-emergent adverse events, single ascending dose (SAD) cohorts; assay type: in vivo, human
Protocol: The SAD portion of the study used a randomized, double-blind, placebo-controlled, sequential, escalating dose design, in which participants received single ascending oral doses of the study drug. Seven cohorts were dosed in sequence (Figure 1). […] Safety was assessed by the incidence of adverse events (AEs) and by the incidence of reduced LVEF. Treatment-emergent AEs (TEAEs) were defined as AEs that began or increased after study drug administration. All AEs were coded using the Medical Dictionary for Regulatory Activities, version 21.1, and graded using the National Cancer Institute Common Terminology Criteria for AEs (version 4.03) 5-point severity scale.[18] Each AE was judged as either related or unrelated to the study drug by the treating investigator. Clinical laboratory tests were obtained at regular intervals in all cohorts.

[1] = Plasma pharmacokinetics in the food-effect cohort; assay type: in vivo, human; details: single 10 mg; for CL/F / Vd/F / half-life: arithmetic mean ± SD; for Vd/F: read-out: Vz/F; for half-life: read-out: t½ (converted); for AUC(0-inf) / Cmax / AUC: geometric mean (geometric CV%); for AUC: read-out: AUC24
Description: Participants were randomized in a 1:1 ratio to 1 of 2 sequences: fasted/fed or fed/fasted. […] For all study groups, blood samples for PK assessment were obtained predose, up to 12 times daily on day 1, and then at regular intervals throughout the study (see Supplemental Appendix for details). Standard noncompartmental methods were used to calculate PK parameters using Phoenix WinNonlin, version 7.0; actual sample collection times were used.

[2] = human, plasma, oral, 10 mg, Fasted, n = 4
[3] = human, plasma, oral, 10 mg, Fasted, n = 10
[4] = human, plasma, oral, 10 mg, Fed, n = 7

Compound: CCc1nc(-c2ccc3c(c2)CC[C@H]3NC(=O)c2cnn(C)c2)no1 [Aficamten]
- Participants with any TEAE (healthy adults; SAD 1 mg, n = 6): 1 (17) n (%)
- Participants with any TEAE (healthy adults; SAD 10 mg, n = 6): 1 (17) n (%)
- TEAE: Headache (healthy adults; SAD 10 mg, n = 6): 1 (17) n (%)
- Participants with any TEAE (healthy adults; SAD 25 mg, n = 6): 5 (83) n (%)
- TEAE: Abdominal tenderness (healthy adults; SAD 25 mg, n = 6): 1 (17) n (%)
- TEAE: Dyspepsia (healthy adults; SAD 25 mg, n = 6): 1 (17) n (%)
- TEAE: Flatulence (healthy adults; SAD 25 mg, n = 6): 1 (17) n (%)
- TEAE: Headache (healthy adults; SAD 25 mg, n = 6): 2 (33) n (%)
- TEAE: Nausea (healthy adults; SAD 25 mg, n = 6): 2 (33) n (%)
- TEAE: Upper abdominal pain (healthy adults; SAD 25 mg, n = 6): 2 (33) n (%)
- Participants with any TEAE (healthy adults; SAD 40 mg, n = 6): 1 (17) n (%)
- TEAE: Ejection fraction decreased (healthy adults; SAD 40 mg, n = 6): 1 (17) n (%)
- Participants with any TEAE (healthy adults; SAD 50 mg, n = 11): 4 (36) n (%)
- TEAE: Abdominal tenderness (healthy adults; SAD 50 mg, n = 11): 1 (9) n (%)
- TEAE: Dyspepsia (healthy adults; SAD 50 mg, n = 11): 1 (9) n (%)
- TEAE: Ejection fraction decreased (healthy adults; SAD 50 mg, n = 11): 1 (9) n (%)
- TEAE: Flatulence (healthy adults; SAD 50 mg, n = 11): 1 (9) n (%)
- TEAE: Headache (healthy adults; SAD 50 mg, n = 11): 1 (9) n (%)
- TEAE: Chest pain (healthy adults; SAD 50 mg, n = 11, bubbling sensation to the left chest, consistent with a gastrointestinal rather than cardiac association): 1 (9) ^a n (%)
- Participants with any TEAE (healthy adults; SAD 75 mg, n = 1): 1 (100) n (%)
- TEAE: Ejection fraction decreased (healthy adults; SAD 75 mg, n = 1): 1 (100) n (%)
- TEAE: Chest pain (healthy adults; SAD 75 mg, n = 1, onset approximately 60 hours postdose): 1 (100) ^b n (%)
- CL/F ([1]; Fasted, n = 4): 2.8 ± 0.6 L/h
- CL/F ([1]; Fed, n = 7): 3.1 ± 0.9 L/h
- Vd/F [1, 2]: 346 ± 134 L
- half-life [1, 2]: 84.4 ± 16.4 h
- AUC(0-inf) [1, 2]: 3670 ng·h/mL
- Cmax [1, 3]: 50.6 ng/mL
- AUC [1, 3]: 601 ng·h/mL
- Tmax ([1]; human, plasma, oral, 10 mg, Fasted, median (range), n = 10): 2.3 h
- Cmax ([1]; human, plasma, oral, 10 mg, Fed (high-fat breakfast), n = 12): 65 ng/mL
- Vd/F [1, 4]: 340 ± 100 L
- half-life [1, 4]: 78 ± 8.1 h
- AUC(0-inf) [1, 4]: 3410 ng·h/mL
- AUC ([1]; human, plasma, oral, 10 mg, Fed, n = 12): 631 ng·h/mL
- Effect of food on the PK ([1]; fed vs fasted): not affected; also recorded: no significant effect; also recorded: no effect of food
- Increase of Cmax when taken with food ([1]; fed vs fasted): approximately 30%
